“And” between values parts separate entries of the source, which are not always exact repeats. Equal entries are not always repeated.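 Grown in 96-well plates, cells were treated for 48 hours with each compound at five concentrations. Insufficient inhibition: endpoint recorded as highest concentration tested. GI50 = concentration required for 50% inhibition of growth. TGI: total growth inhibition.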
Legend:
Experiment in all cases: NCI tumour cell line growth inhibition, 48 h
786-0 renal = tested on: 786-0 renal
CAKI-1 renal = tested on: CAKI-1 renal
NCI/ADR-RES ovarian = tested on: NCI/ADR-RES ovarian
SR leukemia = tested on: SR leukemia
LOX IMVI melanoma = tested on: LOX IMVI melanoma
OVCAR-8 ovarian = tested on: OVCAR-8 ovarian
SN12C renal = tested on: SN12C renal
IGROV1 ovarian = tested on: IGROV1 ovarian
RPMI-8226 leukemia = tested on: RPMI-8226 leukemia
M14 melanoma = tested on: M14 melanoma

SMILES | TGI (786-0 renal) | TGI (CAKI-1 renal) | TGI (NCI/ADR-RES ovarian) [µM] | TGI (SR leukemia) | TGI (LOX IMVI melanoma) | TGI (OVCAR-8 ovarian) | TGI (SN12C renal) | TGI (IGROV1 ovarian) | TGI (RPMI-8226 leukemia) | TGI (M14 melanoma) | GI50 (786-0 renal) [µM] | GI50 (CAKI-1 renal) [µM] | GI50 (NCI/ADR-RES ovarian) | GI50 (SR leukemia) [µM] | GI50 (LOX IMVI melanoma) [µM] | GI50 (OVCAR-8 ovarian) [µM] | GI50 (SN12C renal) [µM] | GI50 (IGROV1 ovarian) [µM] | GI50 (RPMI-8226 leukemia) [µM] | GI50 (M14 melanoma) [µM]
CNC(=S)Nc1ccc(OC)c2ccccc12 | > 10 µM | > 10 µM | > 10 | > 10 µM | > 10 µM | > 10 µM | > 10 µM | > 10 µM | > 10 µM | > 10 µM |  |  |  |  |  |  |  |  |  | 
COc1cc(C)ccc1C(=O)c1ccc(C)cc1OC | > 100 µM | 92.3 µM | 8.14 | > 100 µM | > 100 µM | > 100 µM | > 100 µM | > 100 µM | 27.7 µM | > 100 µM | 6.29 | 2.3 | 1.31 µM | 0.567 | 7.88 | 4.89 | 15.7 | 6.58 | 3.7 | 1.32
O=C(NCC1CC1)c1ccc(-c2cccc(C(=O)NC3CC3)c2)cc1 | > 25 µM | > 25 µM | > 25 | > 25 µM | > 25 µM | > 25 µM | > 25 µM | > 25 µM | > 25 µM | > 25 µM | > 25 | > 25 | > 25 µM | > 23.3 | > 25 | > 25 | > 25 | > 25 | > 25 | > 25
Nc1ncn([C@@H]2S[C@H](CO)[C@@H](O)[C@@H]2F)c(=O)n1 | > 100 µM | > 100 µM | > 100 | > 100 µM | > 100 µM | > 100 µM | > 100 µM | > 100 µM | > 100 µM | 30.1 µM | 0.337 | 0.322 | 0.285 µM | 0.648 | 1.16 | 0.409 | 0.364 | 3.43 | 22.4 | 0.377
O=S(=O)(/N=c1\scc(-c2ccccc2)n1-c1ccccc1)c1ccc(N2N=C3c4ccccc4CC3C2c2ccc(Cl)cc2)cc1 (stereo not given) | > 100 µM | > 100 µM | > 100 | 45.9 µM | 43.5 µM | > 100 µM | > 100 µM | 85.1 µM | > 100 µM | > 100 µM | 32.7 | 46.4 | 51.5 µM | 17.3 | 21.5 | 36.1 | 50.8 | 25.7 | 21.5 | > 100
C/C(=N/O)c1cccc(Nc2cc(-n3nnc4ccccc43)nc3ccccc23)c1 | 31.3 µM | 43.5 µM | 27.9 | 35.2 µM | 93 µM | 51.8 µM | 30.5 µM | > 73 µM | 14.4 µM | 20.3 µM | 4.84 | 16.8 | 8.36 µM | 15 | 24.2 | 13.5 | 8.96 | 29.9 | 3.07 | 7.48
COC(=O)C1=C(O)C(C(=O)OC)C2CC(=O)CC1C2(C)C (stereo not given) | > 100 µM | > 100 µM | > 100 | > 100 µM |  | > 100 µM | > 100 µM | > 100 µM | > 100 µM | > 100 µM |  |  |  |  |  |  |  |  |  | 
CC(CO)Nc1cc(-c2[nH]c3cccnc3c2-c2ccc(F)cc2)ccn1 (stereo not given) | > 25 µM | > 25 µM | > 25 | > 25 µM | > 25 µM | > 25 µM | > 25 µM | > 25 µM | > 25 µM | > 25 µM | 18.6 | 8.23 | > 25 µM | 17 | 13.7 | 15.7 | 15.1 | 6.77 | 17 | > 25
CCc1c2c(nc3ccc(OCc4ccc(B(O)O)cc4)cc13)-c1cc3c(c(=O)n1C2)COC(=O)[C@]3(O)CC | 1.8 µM | 0.361 µM |  | > 100 µM | 0.15 µM | > 32.1 µM | > 100 µM | > 33.7 µM | > 100 µM | 1.66 µM | < 0.0174 | < 0.0143 | 0.0766 µM | < 0.01 | < 0.01 | 0.0195 | < 0.013 | 0.161 | 0.184 | < 0.0156
N#C[Se]Cc1cc(-c2ccccc2)n(-c2ccc(S(N)(=O)=O)cc2)n1 | 6.49 µM | 5.24 µM | 40 | 6.13 µM | 0.324 µM | > 23.2 µM | 4.1 µM | 1.08 µM | 5.02 µM | 0.659 µM | 2.63 | 2.07 | 5.51 µM | 1.37 | 0.171 | 1.35 | 0.527 | 0.322 | 1.9 | 0.24
O=C(Nc1cccc(Cl)c1)Nn1cnnc1 | > 100 µM | > 100 µM | > 100 | > 100 µM | > 50 µM | > 100 µM | > 100 µM | > 100 µM | > 100 µM | > 100 µM | > 50 | > 50 | > 50 µM |  | > 50 | > 50 | > 50 | > 50 | > 50 | > 50
CC1CC(C)CC(C)C(O)/C(C#N)=C/C=C/CC(C2CCCC2C(=O)O)OC(=O)CC(O)C(C)C1 (stereo not given) | 0.171 µM and 0.0536 µM | 0.254 µM and 0.221 µM | 0.265 | 0.0736 µM and 0.0813 µM | 0.0479 µM and 0.0213 µM | 0.472 µM and 0.344 µM | 0.342 µM and 0.727 µM | 0.128 µM and 0.0412 µM | 0.0315 µM and < 0.145 µM | 0.0971 µM and 0.0576 µM | 0.0213 | 0.0166 | 0.187 µM and < 0.0196 µM | 0.0176 | 0.0162 | 0.0495 | 0.0342 | 0.0231 | 0.00486 | 0.026
COc1ccc(C2=Nn3c(nnc3-c3cc(Cl)cc(Cl)c3Cl)SC2)cc1 |  | > 49.7 µM | 1.26 |  | > 100 µM | > 40.7 µM | > 100 µM | 3.59 µM | > 100 µM | > 34 µM | 0.411 | 0.562 | 0.248 µM | 0.826 | 0.568 | 0.862 | 1.54 | 0.339 | 0.627 | 0.349
c1ccc(NN(Cc2cnccn2)c2ccccc2)cc1 | > 100 µM | > 100 µM | > 100 | > 100 µM | > 100 µM | > 100 µM | > 100 µM | > 100 µM | > 100 µM | > 100 µM |  |  |  |  |  |  |  |  |  | 

— PubChem BioAssay (NCI)
